Data as given in patent US20230355599A1, “BIOMARKERS FOR CBL, AND COMPOSITIONS AND METHODS FOR THEIR USE” (NURIX THERAPEUTICS, INC., priority 2022, published 2023).

System: phosphorylated ZAP70
Assay: Phosphorylated ZAP70 in circulating CD8+ T cells after oral dosing of cynomolgus monkeys (flow cytometry, ex vivo anti-CD3/CD28 stimulation)
Procedure: To assess these proximal biomarkers of Cbl-b inhibition on CD8^+ T cells, pharmacodynamic analysis was performed in conjunction with a pharmacokinetic study conducted at Charles River Laboratories. Circulating blood was obtained from cynomolgus monkeys treated with 0.3, 1, 3 or 10 mg/kg of Compound 23 after a single dose and after 3 doses. The response to Cbl-b inhibition on proximal biomarkers (pHS1, pPLCγ2, and pZAP70) was measured in CD8^+ T cells using flow cytometry. This technique is highly quantitative and can measure multiple phosphorylation markers in different cell populations within the same sample.
Compound 23 was formulated in vehicle (0.2% Tween 80 in DI water+1 eq HCL) and aliquoted into individual (not serially diluted) dosing solutions of 0.3, 1, 3 and 10 mg/mL by stirring for 5-10 min, vortexing, and sonicating again as necessary to produce an even suspension that was stirred constantly at 4° C. to achieve and maintain a homogenous suspension. To prepare vehicle, 0.2% Tween 80 in deionized (DI) water, water was measured into a beaker with continuous stirring. Tween 80 was added sequentially, and stirring continued until the solution dissolved; the solution was stored at 2-8° C.
For pharmacodynamic analysis, whole blood was obtained from cynomolgus monkeys and used for flow cytometry assays to evaluate phosphorylated biomarkers, pHS1, pPLCγ2, and pZAP70, in circulating CD8^+ T cells.
On the day of dosing, blood samples were collected via femoral venipuncture in accordance with test facility standard operating procedures. 1 mL/tube of whole blood was collected pre-dose (time 0) and at 0.5, 1, 2, 4, 6, and 24 hours post-dose and added into 2 types of TruCulture tubes (Myriad) for pharmacodynamic analysis. One tube contained media alone and is denoted as “Null”, and the second tube contained 2 μg/mL anti-CD3 and anti-CD28, which were prepared at Nurix prior to the study using cynomolgus specific anti-CD3 (BD Biosciences; SP34-2) and anti-CD28 (Bio X cell; CD28.2) and denoted as “CD3/CD28”. Tubes were shipped by overnight courier on cold pack the day of collection and analyzed for phosphorylated biomarkers of Cbl-b inhibition by flow cytometry.
Following PD collection, upon receipt of TruCulture tubes, each tube was inverted 5-6 times to ensure a mixed suspension of blood. 30 μg of goat anti-mouse IgG (H+L) antibody (Invitrogen) was added to cross-link the stimulation antibodies and induce synchronized cellular stimulation. Cells were stimulated for 60 minutes alongside non-stimulated controls for each time point.
All buffers (Phosflow Lyse/Fix Buffer 5×, Phosflow Perm Buffer I; BD Biosciences) were prepared according to the manufacturer's instructions. After 60 minutes of goat anti-mouse IgG (H+L) antibody stimulation, one volume of blood was mixed with 20 volumes of pre-warmed BD Phosflow Lyse/Fix Buffer (1×) by repeated pipetting (8-10 times), then incubated in a 37° C. water bath for 10 min. Cells were washed and centrifuged at 500×g for 5 min (2×) with PBS. Following centrifugation, cell pellets were resuspended in cold BD Phosflow Perm Buffer I (BD) and incubated at 4° C. for 20 min. […]

## C[C@H]1CCCN(Cc2cc3c(c(C(F)(F)F)c2)CN(c2cccc([C@]4(c5nncn5C)C[C@@H](C)C4)c2)C3=O)C1 [Compound 23]
Multiple doses of 10 mg/kg, 3 days of daily oral dosing
  phosphorylated ZAP70 in comparison to baseline: significant increases
Multiple doses of 10 mg/kg, 4 hours post dose
  time of peak increase of phosphorylated ZAP70: 76 h
Single dose oral 10 mg/kg
  time of maximal signal, phosphorylated ZAP70: 2 hours post dose
Single dose oral 10 mg/kg, after 24 hours
  phosphorylated ZAP70 sustained after 24 hours: significant increase
Single dose oral 10 mg/kg, circulating CD8+ T cells, anti-CD3/CD28 stimulated
  phosphorylated ZAP70 in comparison to baseline: significant increases
